Reference: paper PMC10574143, “Exploring the Solubility Limits of Edaravone in Neat Solvents and Binary Mixtures: Experimental and Machine Learning Study” (Molecules, 2023)

What was measured:
[1] = poor aqueous solubility; no reference given; cited from earlier work
[2] = shake-flask solubility measurement, spectrophotometric at 243 nm; assay type: physicochemical
Protocol: To assess the solubility of EDA in various solvents, excess amounts of EDA were added to test tubes containing either a specific solvent or a binary mixture containing the organic solvent and water in different molar proportions. The saturated solutions were then placed in an Orbital Shaker Incubator ES-20/60 from Biosan (Riga, Latvia) and incubated at various temperatures for 24 h. Four temperature points, ranging from 25 °C to 40 °C with 5 °C intervals, were used for the incubation. The incubator temperature was precisely adjusted to within 0.1 degrees, with a variance of 0.5 degrees during the 24 h cycle. The samples were simultaneously mixed at 60 rev/min. Next, the samples were filtered using syringes equipped with PTFE filters with a pore size of 0.22 µm. To prevent precipitation due to temperature differences between the solutions and instruments, all test tubes, pipette tips, syringes, and filters were preheated. They were placed in the same incubator as the samples and heated to the same temperature before handling. This step was particularly crucial when dealing with elevated temperatures, as the temperature difference could be substantial. After filtration, small quantities of the obtained filtrate were diluted in test tubes containing methanol and measured spectrophotometrically. The density of each solution was measured by weighing a 1 mL volume in 10 mL volumetric flasks using an Eppendorf Reference 2 pipette (Hamburg, Germany) with a systematic error of 6 μL. The RADWAG AS 110 R2.PLUS analytical balance (Radom, Poland) with a precision of 0.1 mg was also used for this purpose. Solubility determination was conducted using the A360 spectrophotometer from AOE Instruments (Shanghai, China). Spectra were recorded in the wavelength range of 190 nm to 400 nm with a resolution of 1 nm. Methanol was used for both diluting the samples and the initial calibration of the spectrophotometer. The analytical wavelength was set at 243 nm, and the absorbance at this wavelength was used to determine the EDA concentration in the samples and subsequently calculate its mole fractions. To ensure accuracy, three separate measurements were performed, and the resulting values were averaged. The calibration curve for EDA was prepared by diluting an initial stock solution and measuring the resulting solutions’ spectrophotometric properties at decreased concentrations. The molar concentrations of the measured solutions ranged from 0.0023 to 0.023 mg/mL. The relationship between the absorbance values at 243 nm and the solution concentration was described by a linear equation A = 85.603 × C − 0.0179, with high linearity denoted by the determination coefficient R^2 equal to 0.9993.

CC1=NN(c2ccccc2)C(=O)C1 [Edaravone, 5-methyl-2-phenyl-4H-pyrazol-3-one]
Biopharmaceutics Classification System (BCS) category [1]: Class IV | solubility at x2* = 0.9 versus pure solvent ([2]; 1,2-propanediol (PG)-water, 25 °C): higher solubility compared to pure solvents | solubility at x2* = 0.9 versus pure solvent ([2]; 1,3-butanediol (BG)-water, 25 °C): higher solubility compared to pure solvents | Edaravone solubility (xEDA) ([2]; BG-water, x2*=0.0 (water), 25 °C): 0.02 (<±0.01) xEDA, ×102 | Edaravone solubility (xEDA) ([2]; BG-water, x2*=0.1, 25 °C): 0.12 (±0.02) xEDA, ×102 | Edaravone solubility (xEDA) ([2]; BG-water, x2*=0.2, 25 °C): 0.29 (±0.04) xEDA, ×102 | Edaravone solubility (xEDA) ([2]; BG-water, x2*=0.3, 25 °C): 0.53 (±0.03) xEDA, ×102 | Edaravone solubility (xEDA) ([2]; BG-water, x2*=0.4, 25 °C): 0.83 (±0.04) xEDA, ×102 | Edaravone solubility (xEDA) ([2]; BG-water, x2*=0.5, 25 °C): 1.07 (±0.05) xEDA, ×102 | Edaravone solubility (xEDA) ([2]; BG-water, x2*=0.6, 25 °C): 1.27 (±0.03) xEDA, ×102 | Edaravone solubility (xEDA) ([2]; BG-water, x2*=0.7, 25 °C): 1.42 (±0.05) xEDA, ×102 | Edaravone solubility (xEDA) ([2]; BG-water, x2*=0.8, 25 °C): 1.50 (±0.03) xEDA, ×102 | Edaravone solubility (xEDA) ([2]; BG-water, x2*=0.9, 25 °C): 1.51 (±0.04) xEDA, ×102 | Edaravone solubility (xEDA) ([2]; DG-water, x2*=0.0 (water), 25 °C): 0.02 (<±0.01) xEDA, ×102 | Edaravone solubility (xEDA) ([2]; DG-water, x2*=0.1, 25 °C): 0.09 (±0.01) xEDA, ×102 | Edaravone solubility (xEDA) ([2]; DG-water, x2*=0.2, 25 °C): 0.25 (±0.01) xEDA, ×102 | Edaravone solubility (xEDA) ([2]; DG-water, x2*=0.3, 25 °C): 0.48 (±0.04) xEDA, ×102 | Edaravone solubility (xEDA) ([2]; DG-water, x2*=0.4, 25 °C): 0.74 (±0.03) xEDA, ×102 | Edaravone solubility (xEDA) ([2]; DG-water, x2*=0.5, 25 °C): 1.09 (±0.01) xEDA, ×102 | Edaravone solubility (xEDA) ([2]; DG-water, x2*=0.6, 25 °C): 1.39 (±0.02) xEDA, ×102 | Edaravone solubility (xEDA) ([2]; DG-water, x2*=0.7, 25 °C): 1.65 (±0.05) xEDA, ×102 | Edaravone solubility (xEDA) ([2]; DG-water, x2*=0.8, 25 °C): 1.87 (±0.04) xEDA, ×102 | Edaravone solubility (xEDA) ([2]; DG-water, x2*=0.9, 25 °C): 1.98 (±0.02) xEDA, ×102 | Edaravone solubility (xEDA) ([2]; PG-water, x2*=0.0 (water), 25 °C): 0.02 (<±0.01) xEDA, ×102 | Edaravone solubility (xEDA) ([2]; PG-water, x2*=0.1, 25 °C): 0.06 (±0.01) xEDA, ×102 | Edaravone solubility (xEDA) ([2]; PG-water, x2*=0.2, 25 °C): 0.15 (±0.01) xEDA, ×102 | Edaravone solubility (xEDA) ([2]; PG-water, x2*=0.3, 25 °C): 0.26 (±0.02) xEDA, ×102 | Edaravone solubility (xEDA) ([2]; PG-water, x2*=0.4, 25 °C): 0.40 (±0.02) xEDA, ×102 | Edaravone solubility (xEDA) ([2]; PG-water, x2*=0.5, 25 °C): 0.54 (±0.02) xEDA, ×102 | Edaravone solubility (xEDA) ([2]; PG-water, x2*=0.6, 25 °C): 0.71 (±0.02) xEDA, ×102 | Edaravone solubility (xEDA) ([2]; PG-water, x2*=0.7, 25 °C): 0.86 (±0.02) xEDA, ×102 | Edaravone solubility (xEDA) ([2]; PG-water, x2*=0.8, 25 °C): 0.99 (±0.02) xEDA, ×102 | Edaravone solubility (xEDA) ([2]; PG-water, x2*=0.9, 25 °C): 1.00 (±0.02) xEDA, ×102 | Edaravone solubility (xEDA) ([2]; TG-water, x2*=0.0 (water), 25 °C): 0.02 (<±0.01) xEDA, ×102 | Edaravone solubility (xEDA) ([2]; TG-water, x2*=0.1, 25 °C): 0.31 (±0.04) xEDA, ×102 | Edaravone solubility (xEDA) ([2]; TG-water, x2*=0.2, 25 °C): 0.78 (±0.03) xEDA, ×102 | Edaravone solubility (xEDA) ([2]; TG-water, x2*=0.3, 25 °C): 1.28 (±0.07) xEDA, ×102 | Edaravone solubility (xEDA) ([2]; TG-water, x2*=0.4, 25 °C): 1.72 (±0.06) xEDA, ×102 | Edaravone solubility (xEDA) ([2]; TG-water, x2*=0.5, 25 °C): 2.11 (±0.08) xEDA, ×102 | Edaravone solubility (xEDA) ([2]; TG-water, x2*=0.6, 25 °C): 2.54 (±0.08) xEDA, ×102 | Edaravone solubility (xEDA) ([2]; TG-water, x2*=0.7, 25 °C): 3.03 (±0.09) xEDA, ×102 | Edaravone solubility (xEDA) ([2]; TG-water, x2*=0.8, 25 °C): 3.51 (±0.09) xEDA, ×102 | Edaravone solubility (xEDA) ([2]; TG-water, x2*=0.9, 25 °C): 3.58 (±0.06) xEDA, ×102 | mole fraction solubility xEDA ([2]; TG-water, x2*=0.9, 25 °C): 3.58 × 10^−2 mole fraction | cosolvency effect in aqueous binary solvent ([2]; diethylene glycol (DG)-water, 25 °C): no cosolvency effect was observed | Edaravone solubility (xEDA) ([2]; neat 1,2-propanediol (PG), x2*=1.0, 25 °C): 0.85 (±0.01) xEDA, ×102 | Edaravone solubility (xEDA) ([2]; neat 1,3-butanediol (BG), x2*=1.0, 25 °C): 1.43 (±0.04) xEDA, ×102 | Edaravone solubility (xEDA) ([2]; neat 2,4-dimethylphenol (DMP), 25 °C): 1.88 (±0.05) xEDA, ×102 | Edaravone solubility (xEDA) ([2]; neat 2,4-dimethylphenol (DMP), 30 °C): 2.82 (±0.58) xEDA, ×102 | Edaravone solubility (xEDA) ([2]; neat 2,4-dimethylphenol (DMP), 35 °C): 4.08 (±0.21) xEDA, ×102 | Edaravone solubility (xEDA) ([2]; neat 2,4-dimethylphenol (DMP), 40 °C): 5.65 (±0.25) xEDA, ×102 | Edaravone solubility (xEDA) ([2]; neat 4-formylmorpholine (4FM), 25 °C): 1.11 (±0.01) xEDA, ×102 | Edaravone solubility (xEDA) ([2]; neat 4-formylmorpholine (4FM), 30 °C): 1.46 (±0.08) xEDA, ×102 | Edaravone solubility (xEDA) ([2]; neat 4-formylmorpholine (4FM), 35 °C): 1.76 (±0.19) xEDA, ×102 | Edaravone solubility (xEDA) ([2]; neat 4-formylmorpholine (4FM), 40 °C): 2.17 (±0.01) xEDA, ×102 | Edaravone solubility (xEDA) ([2]; neat DMSO, 25 °C): 7.58 (±0.32) xEDA, ×102 | Edaravone solubility (xEDA) ([2]; neat DMSO, 30 °C): 12.25 (±0.16) xEDA, ×102 | Edaravone solubility (xEDA) ([2]; neat DMSO, 35 °C): 20.1 (±0.15) xEDA, ×102 | Edaravone solubility (xEDA) ([2]; neat DMSO, 40 °C): 29.81 (±1.14) xEDA, ×102 | mole fraction solubility xEDA ([2]; neat DMSO, 40 °C): 29.81 × 10^−2 mole fraction | Edaravone solubility (xEDA) ([2]; neat NMP, 25 °C): 3.83 (±0.01) xEDA, ×102 | Edaravone solubility (xEDA) ([2]; neat NMP, 30 °C): 4.96 (±0.49) xEDA, ×102 | Edaravone solubility (xEDA) ([2]; neat NMP, 35 °C): 6.94 (±0.19) xEDA, ×102 | Edaravone solubility (xEDA) ([2]; neat NMP, 40 °C): 8.61 (±0.21) xEDA, ×102 | mole fraction solubility xEDA ([2]; neat TEG, 25 °C): 4.63 × 10^−2 mole fraction | mole fraction solubility xEDA ([2]; neat TEG, 40 °C): 21.21 × 10^−2 mole fraction | Edaravone solubility (xEDA) ([2]; neat diethylene glycol (DG), x2*=1.0, 25 °C): 2.04 (±0.06) xEDA, ×102 | Edaravone solubility (xEDA) ([2]; neat diglyme (DIG), 25 °C): 2.05 (±0.02) xEDA, ×102 | Edaravone solubility (xEDA) ([2]; neat diglyme (DIG), 30 °C): 2.69 (±0.04) xEDA, ×102 | Edaravone solubility (xEDA) ([2]; neat diglyme (DIG), 35 °C): 3.33 (±0.11) xEDA, ×102 | Edaravone solubility (xEDA) ([2]; neat diglyme (DIG), 40 °C): 4.16 (±0.06) xEDA, ×102 | Edaravone solubility (xEDA) ([2]; neat tetraglyme (TEG), 25 °C): 4.63 (±0.05) xEDA, ×102 | Edaravone solubility (xEDA) ([2]; neat tetraglyme (TEG), 30 °C): 8.63 (±0.22) xEDA, ×102 | Edaravone solubility (xEDA) ([2]; neat tetraglyme (TEG), 35 °C): 13.05 (±0.19) xEDA, ×102 | Edaravone solubility (xEDA) ([2]; neat tetraglyme (TEG), 40 °C): 21.21 (±0.64) xEDA, ×102 | mole fraction solubility xEDA ([2]; neat triethylene glycol (TG), 25 °C): 2.75 × 10^−2 mole fraction | Edaravone solubility (xEDA) ([2]; neat triethylene glycol (TG), x2*=1.0, 25 °C): 2.75 (±0.08) xEDA, ×102 | Edaravone solubility (xEDA) ([2]; neat triglyme (TIG), 25 °C): 1.53 (±0.07) xEDA, ×102 | Edaravone solubility (xEDA) ([2]; neat triglyme (TIG), 30 °C): 2.20 (±0.04) xEDA, ×102 | Edaravone solubility (xEDA) ([2]; neat triglyme (TIG), 35 °C): 3.11 (±0.17) xEDA, ×102 | Edaravone solubility (xEDA) ([2]; neat triglyme (TIG), 40 °C): 4.57 (±0.39) xEDA, ×102
